Where a name gives a salt, the structure may show the parent alone.
Tests used:
A549 tumor cells [1] = experiment: cell competition experiment, uptake of tracer (29) against excess L-ornithine; assay type: cell-based, human; details: 0.25 MBq tracer, 1 mM L-ornithine, incubation 30 min
Experimental: (§1) To determine the specificity of (4S)-[^18F]-fluoro-L-ornithine (29), the fluorinated compound was used as tracer in a cell competition experiment in A549 as well as PC3 tumor cells against an excess of L-Ornithine (1 mM).
(§2) FIG. 4: The specificity of (4S)-[^18F]-fluoro-L-ornithine (29) for uptake into tumor cells was determined in cell competition experiments using A549 as well as PC3 tumor cells. (0.25 MBq of (4S)-[^18F]-fluoro-L-ornithine was used as tracer, an excess of 1 mM L-ornithine was used for saturation of uptake systems, incubation time 30 min).

PC3 tumor cells = experiment: as above; assay type: cell-based; details: 0.25 MBq tracer, 1 mM L-ornithine, incubation 30 min
Experimental: as §1, §2

A549 cells [2] = experiment: time dependence of uptake of tracer (29), cell-bound fraction; assay type: cell-based, human; details: 0.25 MBq, 60 min incubation
Experimental: (§3) In a second experiment, A549 and PC3 cells were incubated with (4S)-[^18F]-fluoro-L-ornithine for up to 60 min and the cell-bound fraction was determined. Approximately 5% of applied dose was taken up by the cells during the 60 min incubation period (FIG. 5).
(§4) FIG. 5: The time dependence of uptake of (4S)-[^18F]-fluoro-L-ornithine(29) was determined. (A549 and PC3 cells were incubated with 0.25 MBq (4S)-[^18F]-fluoro-L-ornithine for up to 60 min and the cell-bound fraction was determined after 10, 20, 30 and 60 min)

PC3 cells = experiment: as above; assay type: cell-based; details: 0.25 MBq, 60 min incubation
Experimental: as §3, §4

A549 tumor cells [3] = experiment: retention of activity in tumor cells under efflux conditions; assay type: cell-based, human; details: A549 cells loaded 30 min with 0.25 MBq, then 30 min in new buffer (efflux conditions)
Experimental: In a third experiment, the retention of activity in tumor cells was examined. A549 cells were incubated with (4S)-[^18F]-fluoro-L-ornithine for 30 min. After this time, cells were incubated with new buffer (without radiotracer) for up to 30 min. The release of radioactivity into the supernatant as well as the retention inside the cells was examined. It was discovered, that approximately 66% of activity were retained in the tumor cells after 30 min under efflux conditions (FIG. 6).
FIG. 6: Examination of retention of (4S)-[^18F]-fluoro-L-ornithine (29) in A549 tumor cells. A549 cells were loaded with 0.25 MBq (4S)-[^18F]-fluoro-L-ornithine for 30 min in PBS. After washing, the cells were incubated with new buffer (without activity) for additional 10, 20, 30 min. The release of radioactivity into the supernatant as well as the retention inside the cells was determined.

[4] = tested on: NCI-H460 (human NSCLC) tumor bearing rats; experiment: PET-Imaging in tumor bearing rats; assay type: in vivo, rat
Experimental: (§5) Animal experiments. (4S)-[^18F]-fluoro-L-ornithine was examined in NCI-H460 (human NSCLC) tumor bearing rats using PET-Imaging. PET images were obtained from 45 min after administration of the radiotracer (7.16 MBq) for 30 min. […] After the PET-imaging study (98 min p.i.) the rat was sacrificed, several organs were removed and the amount of radioactivity in tissues was measured.
FIG. 7: PET-Imaging of (4S)-[^18F]-fluoro-L-ornithine (29) in H460 tumor bearing rats. 7.16 MBq of radioactive tracer was injected i.v. into rats. PET images were obtained using the Inveon PET/CT scanner from 45 min p.i. for 30 min.

[5] = tested on: NCI-H460 (human NSCLC) tumor bearing rats; experiment: radioactivity in removed organs after the PET-imaging study (biodistribution); assay type: in vivo, rat; details: 98 min p.i.
Experimental: as §5

A549 cells [6] = experiment: cell competition experiment using 14C-ornithine as tracer; assay type: cell-based, human; details: 0.1 μCi 14C-ornithine tracer, compound 1 mM, incubation 10 min
Experimental: (3R)-3-fluoro-L-ornithine-dihydrochloride (31) was used in a cell competition experiment using ^14C-ornithine as tracer.
FIG. 3: The specificity of (3R)-3-fluoro-L-ornithine-dihydrochloride (31) to compete for ^14C-Ornithine uptake was determined in a cell competition experiment in A549 cells. (0.1 μCi ^14C-Ornithine was used as tracer, (3R)-3-fluoro-L-ornithine-dihydrochloride was used at a concentration of 1 mM, incubation period 10 min).

[7] = tested on: A549 (human NSCLC) tumor cells; experiment: cell competition experiment, uptake of tracer (38) against excess L-ornithine; assay type: cell-based; details: 30 min incubation, 0.25 MBq tracer in PBS, L-ornithine 1 mM
Experimental: (§6) To determine the specificity of (5R)-[^18F]-fluoromethyl-L-ornithine (38), the fluorinated compound was used as tracer in a cell competition experiment in A549 (human NSCLC) as well as H460 (human NSCLC) tumor cells using an excess of L-ornithine (1 mM) for competition.
(§7) FIG. 1: Examination of biological activity of (5R)-[^18F]-fluoromethyl-L-ornithine (38) from in a cell-competition-experiment. (NCI-H460 and A549 cells, 30 min incubation with 0.25 MBq (5R)-[^18F]-fluoromethyl-L-ornithine in PBS-Puffer, concentration of L-ornithine 1 mM).

[8] = tested on: H460 (human NSCLC) tumor cells; experiment: as above; assay type: cell-based; details: 30 min incubation, 0.25 MBq tracer in PBS, L-ornithine 1 mM
Experimental: as §6, §7

[9] = tested on: PC3 (prostate) tumor cell line; experiment: time-dependence of binding of tracer (38) to tumor cell lines; assay type: cell-based; details: 30 min incubation with 0.25 MBq
Experimental: In a second experiment, the time-dependence of binding of (5R)-[^18F]-fluoromethyl-L-ornithine to several tumor cell lines was determined using A549, H460 as well as PC3 (prostate) and DU145 (prostate) tumor cell lines. After 30 min incubation with 0.25 MBq up to 5% (PC3 cells) of applied dose were bound to the cells (FIG. 2).
FIG. 2: Binding of (5R)-[^18F]-fluoromethyl-L-ornithine (38) to several tumor cell lines. (A549, H460 (both human NSCLC) as well as PC3 and DU145 (both prostate) tumor cell lines were used and incubated with 0.25 MBq (5R)-[^18F]-fluoromethyl-L-ornithine for up to 30 min. The cell-bound fraction of activity was determined after 10 min, 20 min and 30 min.

[10] = Welch et al. 1986; cited from earlier work
[11] = PET from 45 min p.i. for 30 min, 7.16 MBq i.v., H460 tumor

NC[C@@H]([18F])C[C@H](N)C(=O)O [Example 29, (4S)-[^18F]-fluoro-L-ornithine]
uptake of tracer blockable by excess of ornithine (A549 tumor cells [1]): blockable by excess of ornithine
uptake of tracer blockable by excess of ornithine (PC3 tumor cells): blockable by excess of ornithine
applied dose taken up by the cells (A549 cells [2]): Approximately 5 % of applied dose
applied dose taken up by the cells (PC3 cells): Approximately 5 % of applied dose
activity retained in the tumor cells (A549 tumor cells [3]): approximately 66%
injected dose per gram tumor by ROI analyses [4, 11]: up to 2.2 % injected dose per gram
tumor visualization in PET images [4, 11]: very well visualized
defluorination in vivo, uptake of released [F18]-fluoride in the bones ([4]; later time points of PET study): Some partial defluorination
radioactivity in blood ([5]; blood): 0.38 % ID/g
radioactivity in bone ([5]; bone): 2.08 % ID/g
radioactivity in brain ([5]; brain): 0.24 % ID/g
radioactivity in heart ([5]; heart): 0.44 % ID/g
radioactivity in kidney ([5]; kidney): 1.18 % ID/g
radioactivity in liver ([5]; liver): 0.39 % ID/g
radioactivity in lung ([5]; lung): 0.44 % ID/g
radioactivity in pancreas ([5]; pancreas): 2.47 % ID/g
radioactivity in tumor ([5]; tumor): 1.43 % ID/g

NCC[C@@H](F)[C@H](N)C(=O)O [Example 31, (3R)-3-fluoro-L-ornithine-dihydrochloride]
block of uptake of 14C-ornithine (A549 cells [6]): can block uptake of ^14C-ornithine in A549 cells to a large extent

N[C@@H](C[18F])CC[C@H](N)C(=O)O [Example 38, (5R)-[^18F]-fluoromethyl-L-ornithine]
uptake of tracer blockable by excess of L-ornithine [7]: blockable by excess of L-ornithine
uptake of tracer blockable by excess of L-ornithine [8]: blockable by excess of L-ornithine
applied dose bound to the cells [9]: up to 5 % of applied dose

[^18F]fluoro-putricine
in-vivo release of free [18F]fluoride [10]: relatively high in-vivo release of free [^18F]fluoride
